System: NHACs
Assay: calcium flux assay
Type: cell-based, human
Conditions: Homo sapiens; for Emax: read-out: (A) % Efficacy
Outline: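 Normal human articular chondrocytes plated at 2000 cells/well and loaded 24 h later with Calcium 5 dye in HBSS/HEPES with 5 mM probenecid for 1 h at room temperature. Test compound added at indicated dose; fluorescence (ex 470–495/em 515–575 nm) recorded on FLIPR before and after addition.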

Row | SMILES | EC50 [µM] | Emax [%]
1 | COc1ccc(NC(=O)[C@H]2[C@@H]3O[C@@H]([C@H]4C[C@H]43)[C@@H]2c2ccnc(F)c2F)cn1 [Example 127, (1S,2S,4R,5R,6R,7S)-7-(2,3-difluoropyridin-4-yl)-N-(6-methoxypyridin-3-yl)-8-oxatricyclo[3.2.1.0^2,4]octane-6-carboxamide] | > 50 | 62
2 | CN(C)c1ncc([C@H]2[C@H]3O[C@H](C[C@@H]3O)[C@@H]2C(=O)Nc2ccc(Cl)c(Cl)c2)cn1 [Example 144, (1R,2R,3S,4R,5S)—N-(3,4-dichlorophenyl)-3-(2-(dimethylamino)pyrimidin-5-yl)-5-hydroxy-7-oxabicyclo[2.2.1]heptane-2-carboxamide] | 30 | 183
3 | Cc1cc([C@H]2[C@H]3O[C@H]([C@H](O)[C@@H]3O)[C@@H]2C(=O)Nc2cnc(C)c(C(F)(F)F)c2)ccn1 [Example 163, (1S,2R,3S,4R,5S,6R)-5,6-dihydroxy-N-(6-methyl-5-(trifluoromethyl)pyridin-3-yl)-3-(2-methylpyridin-4-yl)-7-oxabicyclo[2.2.1]heptane-2-carboxamide] | > 50 | 23
4 | Cc1cc([C@@H]2[C@@H](C(=O)Nc3cnc(Cl)c(Cl)c3)[C@@H]3O[C@H]2C[C@H]3F)ccn1 [Example 110, (1S,2R,3S,4S,6R)—N-(5,6-dichloropyridin-3-yl)-6-fluoro-3-(2-methylpyridin-4-yl)-7-oxabicyclo[2.2.1]heptane-2-carboxamide] | 28 | 199
5 | O=C(Nc1ccc(Cl)c(Cl)c1)[C@H]1[C@@H](c2ccnc(F)c2F)[C@H]2O[C@@H]1C[C@@H]2O [Example 59, (1R,2S,3S,4R,5S)—N-(3,4-dichlorophenyl)-3-(2,3-difluoropyridin-4-yl)-5-hydroxy-7-oxabicyclo[2.2.1]heptane-2-carboxamide] | 1.2 | 254
6 | O=C(Nc1ccc(Cl)c(Cl)c1)[C@@H]1[C@@H]2O[C@@H]([C@H]3C[C@H]32)[C@@H]1c1ccnc(F)c1F (single isomer, unassigned) [Example 29] | > 50 | 6
7 | Cc1cc([C@H]2[C@H]3O[C@H](C[C@@H]3F)[C@@H]2C(=O)Nc2cnc(Cl)c(Cl)c2)ccn1 [Example 109, (1R,2R,3S,4R,5S)—N-(5,6-dichloropyridin-3-yl)-5-fluoro-3-(2-methylpyridin-4-yl)-7-oxabicyclo[2.2.1]heptane-2-carboxamide] | 28 | 164
8 | Cc1cc([C@H]2[C@H]3O[C@H]([C@@H]4C[C@@H]43)[C@@H]2C(=O)Nc2ccc(OC(F)(F)F)c(F)c2)ccn1 [Example 71, (1S,2S,4R,5R,6R,7S)—N-(3-fluoro-4-(trifluoromethoxy)phenyl)-7-(2-methylpyridin-4-yl)-8-oxatricyclo[3.2.1.0^2,4]octane-6-carboxamide] | 6.2 | 250
9 | O=C(Nc1ccc(Cl)c(Cl)c1)[C@@H]1[C@@H]2O[C@@H]([C@H]3C[C@H]32)[C@@H]1c1ccnc(F)c1 [Example 25, (1S,2S,4R,5R,6S,7S)-N-(3,4-dichlorophenyl)-7-(2-fluoropyridin-4-yl)-8-oxatricyclo[3.2.1.0^2,4]octane-6-carboxamide] | 17 | 52
10 | Cc1cc([C@H]2[C@H](C(=O)Nc3ccc(Cl)c(Cl)c3)[C@H]3O[C@@H]2C[C@H]3F)ccn1 (single isomer, unassigned) [Example 95] | 11 | 113
11 | O=C(Nc1cnc(Cl)c(Cl)c1)[C@@H]1[C@@H](c2ccnc(F)c2)[C@H]2O[C@@H]1C[C@@H]2O (racemic) [Example 90, rac-(1R,2R,3S,4R,5S)—N-(5,6-dichloropyridin-3-yl)-3-(2-fluoropyridin-4-yl)-5-hydroxy-7-oxabicyclo[2.2.1]heptane-2-carboxamide] | > 50 | 45
12 | O=C(Nc1ccc(Cl)c(Cl)c1)[C@@H]1[C@@H](c2ccnc(F)c2)[C@H]2O[C@@H]1C[C@@H]2F [Example 111, (1R,2R,3S,4R,5S)—N-(3,4-dichlorophenyl)-5-fluoro-3-(2-fluoropyridin-4-yl)-7-oxabicyclo[2.2.1]heptane-2-carboxamide] | 28 | 87
13 | O=C(Nc1cccc(C(F)(F)F)c1)[C@@H]1[C@@H]2O[C@@H]([C@H]3C[C@H]32)[C@@H]1c1ccncc1 [Example 38, (1S,2S,4R,5R,6S,7S)-7-(pyridin-4-yl)-N-(3-(trifluoromethyl)phenyl)-8-oxatricyclo[3.2.1.0^2,4]octane-6-carboxamide] | 9.9 | 36
14 | Cc1cc([C@H]2[C@H]3O[C@H](C[C@@H]3O)[C@@H]2C(=O)Nc2cc(Cl)c(Cl)cn2)ccn1 [Example 80, (1R,2R,3S,4R,5S)—N-(4,5-dichloropyridin-2-yl)-5-hydroxy-3-(2-methylpyridin-4-yl)-7-oxabicyclo[2.2.1]heptane-2-carboxamide] | > 50 | 32
15 | O=C(Nc1cnc(Cl)c(Cl)c1)[C@H]1[C@@H]2O[C@@H]([C@H]3C[C@H]32)[C@@H]1c1ccnc(F)c1F (single isomer, unassigned) [Example 72] | 7.7 | 208
16 | O=C(Nc1cccc(C(F)(F)F)c1)[C@H]1[C@@H]2O[C@@H]([C@@H](O)[C@H]2O)[C@@H]1c1ccncc1 [Example 159, (1S,2R,3S,4R,5S,6R)-5,6-dihydroxy-3-(pyridin-4-yl)-N-(3-(trifluoromethyl)phenyl)-7-oxabicyclo[2.2.1]heptane-2-carboxamide] | > 50 | 11
17 | COc1cc([C@H]2[C@H]3O[C@H]([C@@H]4C[C@@H]43)[C@H]2C(=O)Nc2cnc(Cl)c(Cl)c2)ccn1 [Example 1, (1S,2S,4R,5R,6S,7S)—N-(5,6-dichloropyridin-3-yl)-7-(2-methoxypyridin-4-yl)-8-oxatricyclo[3.2.1.0^2,4]octane-6-carboxamide] | 3.4 | 164
18 | O=C(Nc1cnc(Cl)c(Cl)c1)[C@@H]1[C@@H]2O[C@@H]([C@H]3C[C@H]32)[C@@H]1c1ccncc1 (single isomer, unassigned) [Example 43b] | > 50 | 3
19 | Cc1ccc([C@H]2[C@H]3O[C@H](C[C@@H]3F)[C@H]2C(=O)Nc2ccc(Cl)c(Cl)c2)cn1 [Example 21, (1R,2S,3S,4R,5S)-N-(3,4-dichlorophenyl)-5-fluoro-3-(6-methylpyridin-3-yl)-7-oxabicyclo[2.2.1]heptane-2-carboxamide] | 27 | 159

More lines, main results first:

Row | EC50 [µM] | SMILES | Emax [%]
20 | > 50 | Cc1cc([C@@H]2[C@@H]3O[C@@H](C[C@H]3O)[C@@H]2C(=O)Nc2cnc(Cl)c(Cl)c2)ccn1 (single isomer, unassigned) [Example 7] | 0
21 | 13 | O=C(Nc1ccc(Cl)c(Cl)c1)[C@@H]1[C@@H](c2cncnc2)[C@H]2O[C@@H]1C[C@@H]2O [Example 141, (1R,2R,3S,4R,5S)—N-(3,4-dichlorophenyl)-5-hydroxy-3-(pyrimidin-5-yl)-7-oxabicyclo[2.2.1]heptane-2-carboxamide] | 43
22 | > 50 | Cc1cc([C@H]2[C@H]3O[C@H](C[C@@H]3O)[C@H]2C(=O)Nc2cnc(C)c(Cl)c2)ccn1 [Example 5, (1R,2S,3S,4R,5S)-N-(5-chloro-6-methylpyridin-3-yl)-5-hydroxy-3-(2-methylpyridin-4-yl)-7-oxabicyclo[2.2.1]heptane-2-carboxamide] | 18
23 | 21 | O=C(Nc1ccc(Cl)c(Cl)c1)[C@H]1[C@@H]2O[C@@H]([C@H]3C[C@H]32)[C@@H]1c1ccncc1 [Example 137, (1S,2S,4R,5R,6R,7S)—N-(3,4-dichlorophenyl)-7-(pyridin-4-yl)-8-oxatricyclo[3.2.1.0^2,4]octane-6-carboxamide] | 202
24 | 25 | O=C(Nc1ccc(Cl)c(Cl)c1)[C@H]1[C@@H]2O[C@@H]([C@H]3C[C@H]32)[C@@H]1c1cnc(N2CCOCC2)nc1 [Example 133, (1S,2S,4R,5R,6R,7S)—N-(3,4-dichlorophenyl)-7-(2-morpholinopyrimidin-5-yl)-8-oxatricyclo[3.2.1.0^2,4]octane-6-carboxamide] | 158
25 | 0.53 | Nc1ncc([C@H]2[C@H]3O[C@H]([C@@H]4C[C@@H]43)[C@H]2C(=O)Nc2ccc(Cl)c(Cl)c2)cn1 [Example 39, (1S,2S,4R,5R,6S,7S)-7-(2-aminopyrimidin-5-yl)-N-(3,4-dichlorophenyl)-8-oxatricyclo[3.2.1.0^2,4]octane-6-carboxamide] | 40
26 | 24 | O=C(Nc1cccc(C(F)(F)F)c1)[C@@H]1[C@@H]2O[C@@H]([C@H]3C[C@H]32)[C@@H]1c1ccnc(F)c1 [Example 41, (1S,2S,4R,5R,6S,7S)-7-(2-fluoropyridin-4-yl)-N-(3-(trifluoromethyl)phenyl)-8-oxatricyclo[3.2.1.0^2,4]octane-6-carboxamide] | 121
27 | > 50 | CO[C@H]1C[C@H]2O[C@@H]1[C@H](c1ccnc(C)c1)[C@@H]2C(=O)Nc1ccc(Cl)c(Cl)c1 [Example 63, (1R,2S,3S,4R,5S)—N-(3,4-dichlorophenyl)-5-methoxy-3-(2-methylpyridin-4-yl)-7-oxabicyclo[2.2.1]heptane-2-carboxamide] | 9
28 | > 50 | Cc1ccc([C@H]2[C@H]3O[C@H](C[C@H]3F)[C@@H]2C(=O)Nc2ccc(Cl)c(Cl)c2)cn1 [Example 164, (1R,2R,3S,4R,5R)—N-(3,4-dichlorophenyl)-5-fluoro-3-(6-methylpyridin-3-yl)-7-oxabicyclo[2.2.1]heptane-2-carboxamide] | 0
29 | > 50 | O=C(Nc1ccc(Cl)c(Cl)c1)[C@H]1[C@@H](c2cncnc2)[C@H]2O[C@@H]1C[C@@H]2O [Example 51, (1R,2S,3S,4R,5S)—N-(3,4-dichlorophenyl)-5-hydroxy-3-(pyrimidin-5-yl)-7-oxabicyclo[2.2.1]heptane-2-carboxamide] | 0
